≈ marks a conversion by molar mass, not a printed value. Entries after “also recorded” stand apart in the source; their conditions may differ. Read-outs that look alike come from different tables or passages of the source.
How the values were obtained:
Assay type in all cases: physicochemical
[1] = Static storage at 40° C./75% RH, XRPD and HPLC post storage
In short: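 Solids isolated as counter-ion salts of the compound were stored statically at 40° C./75% RH and then re-examined by XRPD for solid-form changes. Chemical purity after storage was checked on an Agilent HP1100/Infinity II 1260 series HPLC system fitted with a diode array detector and running OpenLAB software.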

[2] = Thermodynamic solubility in simulated media and buffers; conditions: for solubility at 24 h: 25 °C, thermodynamic from solid
Experimental: The thermodynamic solubility for Pattern 11 was determined in 3 simulated media and two buffers. […]

[3] = Competitive slurries of Pattern 3 and Pattern 11, XRPD
Experimental: A solid mixture of Structure (I) Pattern 3 (from Lot B, 300 mg) and Pattern 11 (Sample 35-1, 300 mg) was mixed for 3 hours using a turbula mixer.
The solid mixture (30 mg) was suspended in solvent (dried with molecular sieves, 600 μL, 20 vol) and either stirred in the fridge, shaken at RT or 55° C. After 7 days, an aliquot of each suspension was analyzed by XRPD. Samples that were still a mixture of forms were placed back into fridge/shakers for a further 10 days and re-analyzed (results shown in Table 36).
Competitive slurry experiments at 55° C., along with one at 5° C., were repeated using a saturated solution as the solvent mixture to minimize dissolution that may have occurred at temperatures other than room temperature.
A saturated solution of THF/Water (9:1) (5 mL) with Structure (I) (from Lot B) was equilibrated at 55° C. overnight in a shaker. The solution was filtered using 0.45 μm nylon filter before use.
A solid mixture of Pattern 3 and Pattern 11 (30 mg) was suspended in the saturated solution (600 μL, 20 vol) and either stirred in the fridge (5° C.) or shaken at 55° C. After 1 day, aliquots of the suspensions were analyzed by XRPD. Both samples were placed back into fridge/shaker. After a total of 11 days, the samples were removed from fridge/shaker. Sample 38-2 was filtered before XRPD, Sample 38-1 was pipetted onto the XRPD holder and allowed to dry before analysis (solid passed through filter).

[4] = Static storage at 25° C./97% RH, XRPD and HPLC post storage; conditions: 10 days
[5] = Drying / standing under ambient conditions, XRPD; conditions: ambient conditions
Experimental: Structure (I) (Sample 28-2, 30 mg, Poorly Crystalline Pattern 3) was wetted with solvent (300 μL, 10 vol) according to Table 30 and put into a shaker at 50° C. for 6 days. The suspensions were isolated using filter cartridges and positive pressure. A XRPD pattern was collected for each sample. […] This characterization is presented and discussed in Examples detailed herein. (see, e.g., FIG. 75)

[6] = Gravimetric vapor sorption (GVS) and XRPD post-GVS; conditions: for GVS reversible water uptake 0-90% RH: 25° C.; for Post GVS XRPD form: after double cycle GVS
Experimental: Sorption isotherms were obtained using a SMS DVS Intrinsic moisture sorption analyzer, controlled by DVS Intrinsic Control software. The sample temperature was maintained at 25° C. by the instrument controls. The humidity was controlled by mixing streams of dry and wet nitrogen, with a total flow rate of 200 mL/min. The relative humidity was measured by a calibrated Rotronic probe (dynamic range of 1.0-100% RH), located near the sample. The weight change, (mass relaxation) of the sample as a function of % RH was constantly monitored by a microbalance (accuracy±0.005 mg).
Typically, 5-30 mg of sample was placed in a tared mesh stainless steel basket under ambient conditions. The sample was loaded and unloaded at 40% RH and 25° C. (typical room conditions). A moisture sorption isotherm was performed as outlined below (2 scans per complete cycle). The standard isotherm was performed at 25° C. at 10% RH intervals over a 0-90% RH range. Typically, a double cycle (4 scans) was carried out. Data analysis was carried out within Microsoft Excel using the DVS Analysis Suite.
Sorption isotherms were obtained using a Hiden IGASorp moisture sorption analyser, controlled by Isochema HISorp software. The sample temperature was maintained at 25° C. by a Grant LT ecocool 150 re-circulating water bath. The humidity was controlled by mixing streams of dry and wet nitrogen, with a total flow rate of 250 ml·min-1. The relative humidity was measured by a calibrated Vaisala RH probe (dynamic range of 0-95% RH), located near the sample. The weight change, (mass relaxation) of the sample as a function of % RH was constantly monitored by the microbalance (accuracy±0.001 mg).
Typically, 20-30 mg of sample was placed in a tared mesh stainless steel basket under ambient conditions. The sample was loaded and unloaded at 40% RH and 25° C. (typical room conditions). A moisture sorption isotherm was performed as outlined below (2 scans giving 1 complete cycle). The standard isotherm was performed at 25° C. at 10% RH intervals over a 0-90% RH range. Typically, a double cycle (4 scans) was carried out. Data analysis was carried out within the Isochema HISorp 2019 software and exported into Microsoft Excel to present accordingly.

[7] = Static storage at 40° C./75% RH, XRPD and HPLC post storage; conditions: 7 days, listed as 34-1
[8] = Drying / standing under ambient conditions, XRPD; conditions: listed as 34-1
pKa measurements = assay: pKa measurements
[9] = Heating for 24 h in a vacuum tray dryer, XRPD and HPLC
Experimental: A polymorphism study of Structure (I) was performed at 75° C., 100° C., 175° C., and 250° C. About 500 mg of Structure (I) Pattern 3 was heated at 75° C. for 24 h in a vacuum tray dryer (VTD) under reduced pressure. Obtained material after heating at 75° C. was analyzed for purity by HPLC and XPRD analysis. […] Additionally, about 500 mg of Structure (I) was heated at 75° C. for 24 h in a VTD under reduced pressure. After 24 h, material was cooled to 25-30° C. under inert atmosphere and analyzed for purity by HPLC and XRPD.
About 500 mg of Structure (I) was heated at 100° C. for 24 h in a VTD under reduced pressure. Obtained material after heating at 100° C. was analyzed for purity by HPLC and XPRD. […] Additionally, about 500 mg of Structure (I) was heated at 100° C. for 24 h in a VTD under reduced pressure. After 24 h material was cooled to 25-30° C. under inert atmosphere. Obtained material was analyzed for purity by HPLC and XPRD.
Obtained material after heating at 175° C. was analyzed for purity by HPLC and XPRD. […] After 24 h, material was cooled to 25-30° C. under inert atmosphere. Obtained material was analyzed for purity by HPLC and XPRD.
About 500 mg of Structure (I) was heated at 250° C. for 24 h in a VTD. Obtained material after heating at 250° C. was analyzed for purity by HPLC and XPRD.

[10] = Slurry in pH 2.0 buffer, XRPD; conditions: pH 2.0 chloride buffer, RT, 5 days
Experimental: Structure (I) (from Lot B, 30 mg) was suspended in pH 2.0 buffer (chloride buffer, 3 mL) and placed in a shaker at RT. After 1 day, the sample was filtered and analyzed by XRPD. The sample was re-suspended in pH 2.0 buffer (2 mL) and returned to shaking at RT for 4 days. The sample was aliquoted and analyzed by XRPD, before filtration and drying under suction.

**Q.** Which “stability to storage at 40° C./75% RH (in words)” value ([1]; 40° C./75% RH (elevated temperature and humidity)) does the source give for Cc1cc(Nc2cc(N)ncn2)c(=O)n2c1C(=O)NC21CCC2(CC2)CC1 [Pattern 11] here?
**A.** The value was “reasonable stability; also recorded: good stability”.

**Q.** What about the “XRPD form after storage at 40° C./75% RH, 3 days” value ([1]; 40° C./75% RH, 3 days) of the same compound?
**A.** Its value is 3 days: No change in form-Pattern 11.

**Q.** What about the “Static storage 40° C./75% RH, form” value ([1]; 40° C./75% RH, 10 days) of the same compound?
**A.** Its value is “form and purity was found to stable”.

**Q.** What about the “Static storage 40° C./75% RH, purity” value ([1]; 40° C./75% RH, 10 days) of the same compound?
**A.** The value was “Purity: 98.0%”.

**Q.** And the “Static storage 40° C./75% RH, form” value ([1]; 40° C./75% RH, 10 days, listed as 35-1)?
**A.** Its value is 10 days: No change in form-Pattern 11.

**Q.** What about the “Solubility FaSSGF” value ([2]; FaSSGF, 25° C./24 h, listed as 35-1) of the same compound?
**A.** Its value is “FaSSGF-0.078 mg/mL”.

**Q.** And the solubility at 24 h ([2]; FaSSIF, fassif, FaSSIF, 25° C./24 h, read-out: Solubility FaSSIF)?
**A.** The solubility at 24 h was 1.4 µg/mL (≈ 3.82 µM).

**Q.** And the solubility at 24 h ([2]; FeSSIF, fessif, FeSSIF, 25° C./24 h, read-out: Solubility FeSSIF)?
**A.** The solubility at 24 h was 4 µg/mL (≈ 10.9 µM).

**Q.** And the “Solubility pH 2.0” value ([2]; pH 2.0 buffer, 25° C./24 h, listed as 35-1)?
**A.** The value was “pH 2.0-0.052 mg/mL”.

**Q.** And the solubility at 24 h ([2]; pH 7.4 buffer, pH 7.4, aqueous buffer, pH 7.4 buffer, 25° C./24 h, read-out: Solubility pH 7.4)?
**A.** Its solubility at 24 h is 1 µg/mL (≈ 2.73 µM).

**Q.** And the “solubility in simulated fluids and buffers (in words)” value ([2]; simulated media and buffers)?
**A.** Its value is “practically insoluble”.

**Q.** What about the “form conversion in competitive slurries (in words)” value [3] of the same compound?
**A.** Its value is “no conversion of Pattern 11 to Pattern 3”.

**Q.** What about the “Static storage 25° C./97% RH, form” value [4] of the same compound?
**A.** The value was 10 days: No change in form-Pattern 11.

**Q.** What about the “Static storage 25° C./97% RH, purity” value [4] of the same compound?
**A.** Its value is “Purity: 98.1%”.

**Q.** And the “form under ambient conditions (XRPD after ambient overnight)” value [5]?
**A.** Its value is “stable at ambient conditions; also recorded: stable at room temperature”.

**Q.** And the “hygroscopicity (in words)” value [6]?
**A.** Its value is “only slightly hygroscopic”.

**Q.** And the “GVS reversible water uptake 0-90% RH” value [6]?
**A.** Its value is 0.3 wt %.

**Q.** What about the “GVS reversible water uptake 0-90% RH” value ([6]; listed as 35-1) of the same compound?
**A.** Its value is 0.3 wt % reversible water uptake 0-90% RH with a.

**Q.** And the “Post GVS XRPD form” value [6]?
**A.** Its value is “remained Pattern 11”.

**Q.** What about the “Post GVS XRPD form” value ([6]; listed as 35-1) of the same compound?
**A.** Its value is “Post GVS XRPD: Pattern 11 + peak at 7.7°”.

**Q.** What about the “hygroscopicity (in words)” value ([6]; listed as Structure (I) Pattern 11) of the same compound?
**A.** The value was “only slightly hygroscopic”.

**Q.** And the “XRPD post storage at 40° C./75% RH” value [7]?
**A.** The value was 7 days: Pattern 11 + extra peaks (not.

**Q.** What about the “form under ambient conditions (XRPD after ambient overnight)” value [8] of the same compound?
**A.** The value was “Pattern 11”.

**Q.** Which pKa (pKa measurements; read-out: acidic pKa (acidic center)) does the source give for Cc1cc(Nc2cc(N)ncn2)c(=O)n2c1C(=O)NC21CCC2(CC2)CC1 [Structure (I), 6″-((6-aminopyrimidin-4-yl)amino)-8″-methyl-2″H-dispiro[cyclopropane-1, l′-cyclohexane-4′,3″-imidazo[1,5-a]pyridine]-1″,5″-dione] here?
**A.** The pKa was 11.5.

**Q.** And the pKa (pKa measurements; read-out: basic pKa)?
**A.** Its pKa is 4.73.

**Q.** And the “HPLC purity change after heating at 100° C.” value ([9]; 100° C., reduced pressure)?
**A.** The value was “no change”.

**Q.** What about the “XRPD form after heating at 100° C.” value ([9]; 100° C., reduced pressure) of the same compound?
**A.** The value was “remained as Pattern 3”.

**Q.** What about the “HPLC purity change after heating at 175° C.” value ([9]; 175° C., reduced pressure) of the same compound?
**A.** Its value is “no change”.

**Q.** What about the “XRPD form after heating at 175° C.” value ([9]; 175° C., reduced pressure) of the same compound?
**A.** Its value is “converted to Pattern 11”.

**Q.** What about the “XRPD form after heating at 250° C.” value ([9]; 250° C.) of the same compound?
**A.** Its value is “converted to Pattern 11”.

**Q.** What about the “XRPD form after slurry in pH 2.0 buffer” value [10] of the same compound?
**A.** Its value is “Pattern 1”.
